The text below walks through data of patent US5852034A, “Benzo(5,6)cycloheptapyridine cyclic ureas and lactams useful as farnesyl protein transferase inhibitors” (Schering Corporation, priority 1997, dated 1998).

For experiment [1], the target named is farnesyl protein transferase (Homo sapiens, UniProt P49354+P49356). Put plainly: FPT IC50 (inhibition of farnesyl protein transferase, in vitro enzyme assay). The experiment is classed as biochemical. The settings on record: procedures described in WO 95/10516. Here is the method:
(§1) FPT IC50 (inhibition of farnesyl protein transferase, in vitro enzyme assay), COS Cell IC50 (Cell-Based Assay), GGPT IC50 (inhibition of geranylgeranyl protein transferase, in vitro enzyme assay), Cell Mat Assay, and anti-tumor activity (in vivo anti-tumor studies) are determined by the assay procedures described in WO 95/10516.

In experiment [2] the test system is Ras processing in COS cells. Put plainly: COS Cell IC50 (Cell-Based Assay), inhibition of Ras processing. As to conditions: procedures described in WO 95/10516. Here is the method: as §1

In experiment [1], `O=C1CCCCN1CCC(=O)N1CCC([C@H]2c3ncc(Br)cc3CCc3cc(Cl)cc(Br)c32)CC1` [Example 5, (+)-4-(3,10-Dibromo-8-chloro-6,11-dihydro-5H-benzo[5,6]cyclohepta-[1,2-b]pyridin-11-yl)-1-[1-oxo-3-(2-oxo-1-piperidinyl)propyl]piperidine] displayed an IC50 of 19 nM. Same read-out and setting: under `O=C1CCCN1CCCC(=O)N1CCC([C@H]2c3ncc(Br)cc3CCc3cc(Cl)cc(Br)c32)CC1` [Example 3, (+)-4-(3,10-Dibromo-8-chloro-6,11-dihydro-5H-benzo[5,6]cyclohepta-[1,2-b]pyridin-11-yl)-1-[1-oxo-4-(2-oxo-1-pyrrolidinyl)butyl]piperidine] stands 85 nM; under `O=C(CN1CCCCC1=O)N1CCC([C@H]2c3ncc(Br)cc3CCc3cc(Cl)cc(Br)c32)CC1` [Example 4, (+)-4-(3,10-Dibromo-8-chloro-6,11-dihydro-5H-benzo[5,6]cyclohepta-[1,2-b]pyridin-11-yl)-1-[(2-oxo-1-piperidinyl)acetyl]piperidine], 2.8 nM; under `O=C1CCCCN1CCCC(=O)N1CCC([C@H]2c3ncc(Br)cc3CCc3cc(Cl)cc(Br)c32)CC1` [Example 6, (+)-4-(3,10-Dibromo-8-chloro-6,11-dihydro-5H-benzo[5,6]cyclohepta-[1,2-b]pyridin-11-yl)-1-[1-oxo-4-(2-oxo-1-piperidinyl)butyl]piperidine], 80 nM.

In experiment [1], `O=C(CCN1CCCNC1=O)N1CCC([C@H]2c3ncc(Br)cc3CCc3cc(Cl)cc(Br)c32)CC1` [Example 11, (+)-4-(3,10-Dibromo-8-chloro-6,11-dihydro-5H-benzo[5,6]cyclohepta-[1,2-b]pyridin-11-yl)-1-[1-oxo-3-(hexahydo-2-oxo-1-pyrimidinyl)-oxopropyl]piperidine] gave an IC50 of 20 nM. In the case of `O=C(CCCN1CCCNC1=O)N1CCC([C@H]2c3ncc(Br)cc3CCc3cc(Cl)cc(Br)c32)CC1` [Example 12, (+)-4-(3,10-Dibromo-8-chloro-6,11-dihydro-5H-benzo[5,6]cyclohepta[1,2-b]pyridin-11-yl)-1-[4-(hexahydo-2-oxo-1-pyrimidinyl)oxobutyl]piperidine], in experiment [1], half-maximal inhibition (IC50) was put at 56 nM. Take `O=C(CN1CCCNC1=O)N1CCC([C@H]2c3ncc(Br)cc3CCc3cc(Cl)cc(Br)c32)CC1` [Example 10, (+)-4-(3,10-Dibromo-8-chloro-6,11-dihydro-5H-benzo[5,6]cyclohepta-[1,2-b]pyridin-11-yl)-1-[(hexahydro-2-oxo-1-pyrimidinyl)acetyl]piperidine]: the concentration for half-maximal inhibition (IC50) in experiment [1] was determined as 3.2 nM; in experiment [2] it was 16 nM. The corresponding values for `O=C(CN1CCCC1=O)N1CCC([C@H]2c3ncc(Br)cc3CCc3cc(Cl)cc(Br)c32)CC1` [Example 1, (+)-4-(3,10-Dibromo-8-chloro-6,11-dihydro-5H-benzo[5,6]cyclohepta-[1,2-b]pyridin-11-yl)-1-[(2-oxo-1-pyrrolidinyl)acetyl]piperidine] are 4 nM and 500 nM. Turning to `O=C(CN1CCNC1=O)N1CCC([C@H]2c3ncc(Br)cc3CCc3cc(Cl)cc(Br)c32)CC1` [Example 7, (+)-4-(3,10-Dibromo-8-chloro-6,11-dihydro-5H-benzo[5,6]cyclohepta-[1,2-b]pyridin-11-yl)-1-[(2-oxo-1-imidazolidinyl)acetyl]piperidine], 23 nM corresponded to half-maximal inhibition in experiment [1] (IC50).

With `O=C(CCCN1CCNC1=O)N1CCC([C@H]2c3ncc(Br)cc3CCc3cc(Cl)cc(Br)c32)CC1` [Example 9], in experiment [1], the IC50 was found to be 16 nM.

Broadly, the IC50 is the concentration needed to halve the response being measured. A low value points to higher potency.
